Results taken from ChEMBL document CHEMBL4130575, “Sucupiranins A-L, Furanocassane Diterpenoids from the Seeds of Bowdichia virgilioides” (J Nat Prod, 2017).

Experiments:
Plasmodium falciparum = test: Antimalarial activity against Plasmodium falciparum K1 infected in human erythrocytes after 72 hrs by lactate dehydrogenase assay; format: functional, organism-based; conditions: K1, 72 h
RAW264.7 = test: Antiinflammatory activity in mouse RAW264.7 cells assessed as inhibition of LPS-induced nitric oxide production preincubated for 3 hrs followed by LPS challenge measured after 20 hrs by Griess assay; format: functional, cell-based
[1] = Cytotoxicity against human MRC5 cells assessed as decrease in cell viability after 7 days by MTT assay; format: cell-based
[2] = Selectivity index, ratio of CC50 for human MRC5 cells to IC50 for Plasmodium falciparum K1; format: toxicity; conditions: read-out: Ratio CC50/IC50
HeLa = test: Cytotoxicity against human HeLa cells after 48 hrs by CCK8 assay; format: functional, cell-based
HL-60 = test: Cytotoxicity against human HL60 cells after 48 hrs by CCK8 assay; format: functional, cell-based; conditions: HL-60, 48 h

Row | IC50 (Plasmodium falciparum) [µM] | SMILES | other results
1 | > 27 | COC(=O)[C@@H]1c2ccoc2C[C@H]2[C@H]1[C@@H](OC(C)=O)[C@H](O)[C@H]1[C@](C)(COC(C)=O)CCC[C@]21C | –
2 | > 30 | COC(=O)[C@@H]1c2ccoc2C[C@H]2[C@H]1[C@@H](OC(C)=O)[C@@H]1OC(=O)[C@]3(C)CCC[C@@]2(C)[C@@H]13 | –
3 | 22.9 | COC(=O)[C@@H]1c2ccoc2C[C@H]2[C@H]1[C@@H](O)[C@H](O)[C@H]1C(C)(C)CCC[C@]21C | CC50 at 168 h [1]: > 276 µM; selectivity ratio [2]: > 12
4 | > 30.9 | COC(=O)[C@@H]1c2ccoc2C[C@H]2[C@H]1[C@@H](O)[C@H](OC(C)=O)[C@H]1C(C)(C)CCC[C@]21C | –

The remaining lines, values behind:

Row | SMILES | IC50 (Plasmodium falciparum) [µM] | other results
5 | CC(=O)OC[C@@]1(C)CCC[C@]2(C)[C@H]3Cc4occc4[C@@](C)(O)[C@@H]3[C@@H](O)[C@H](OC(C)=O)[C@@H]12 | > 28.8 | –
6 | CC(=O)O[C@H]1[C@H](O)[C@@H]2[C@H](Cc3occc3[C@@]2(C)O)[C@@]2(C)CCCC(C)(C)[C@H]12 | 32.2 | IC50 (RAW264.7): 30.6 µM; CC50 at 168 h [1]: 139 µM; selectivity ratio [2]: 4.3
7 | COC(=O)[C@@H]1c2ccoc2C[C@H]2[C@H]1[C@@H](OC(C)=O)[C@H](O)[C@H]1C(C)(C)CCC[C@]21C | > 30.9 | –
8 | CC(=O)OC[C@@H]1c2ccoc2C[C@H]2[C@H]1C[C@H](OC(C)=O)[C@H]1C(C)(C)CCC[C@]21C | 23.5 | IC50 (HeLa): 32.2 µM; IC50 (HL-60): 32.6 µM; CC50 at 168 h [1]: 44.1 µM; selectivity ratio [2]: 1.9
9 | COC(=O)[C@@H]1c2ccoc2C[C@H]2[C@H]1[C@@H](O)[C@H](O)[C@H]1[C@](C)(CO)CCC[C@]21C | – | IC50 (HL-60): 9.8 µM
10 | COC(=O)[C@@H]1c2ccoc2C[C@H]2[C@H]1[C@@H](OC(C)=O)[C@H](O)[C@@H]1[C@]2(C)CCC[C@@]1(C)C(=O)OC | > 27.9 | –
11 | C[C@@H]1CC[C@H]2[C@@H](C)C(=O)O[C@@H]3O[C@@]4(C)CC[C@@H]1[C@]32OO4 [ARTEMISININ] | 0.025 | –
